Measured values as given in patent publication US5834461A, “Tricyclic benzazepine vasopressin antagonists” (American Cyanamid Company, priority 1997, dated 1998).

Tests used:
[1] = target: vasopressin V1 receptor (rat liver plasma membranes) (Rattus norvegicus, UniProt P30560); assay: Binding Assay to Rat Hepatic V1 Receptors; settings: for inhibition at 10 µM: 2 h, rat hepatic, read-out: V1, % at concentration in brackets; for IC50: rat hepatic V1
[2] = target: T1, rat kidney medullary V2 receptors (Rattus norvegicus, UniProt Q00788); assay: Binding Assay to Rat Kidney Medullary V2 Receptors; settings: for inhibition at 10 µM: rat kidney, read-out: V2, % at concentration in brackets; for IC50: rat kidney medullary V2
T1 construct: Medullary tissues from rat kidneys are dissected out; from tissue; host or cells: rat kidney medulla membranes
Summary of the method: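 Competition binding: [3H]AVP at 0.8 nM, test compounds from 50% DMSO, and membranes from rat kidney medulla, left 120 min on the bench. Filtration then liquid scintillation counting measured bound ligand; 1.0 μM unlabeled ligand set non-specific binding.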

vasopressin V2 = assay: Vasopressin V2 Antagonist Activity in Conscious Hydrated Rats (diuretic effect); format: in vivo, normal Sprague-Dawley rats; settings: AVP 0.4 μg/kg i.p.
Summary of the method: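 Conscious rats were dosed orally at 0.1–100 mg/kg, and AVP 0.4 μg/kg i.p. in peanut oil followed 1 h later. Urine volume, osmolality and Na/K/Cl were compared against AVP-treated controls, with non-AVP rats as water-loading controls.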

[3] = target: T2, oxytocin receptors (rat uterus membranes) (Rattus norvegicus, UniProt P70536); assay: Oxytocin Receptor Binding; set-up: species or system female Sprague-Dawley rats
T2 construct: The resulting pellet containing the oxytocin receptors is resuspended; from tissue; host or cells: uterus membranes of DES-treated female Sprague-Dawley rats
T2 sequence (P70536 1-388): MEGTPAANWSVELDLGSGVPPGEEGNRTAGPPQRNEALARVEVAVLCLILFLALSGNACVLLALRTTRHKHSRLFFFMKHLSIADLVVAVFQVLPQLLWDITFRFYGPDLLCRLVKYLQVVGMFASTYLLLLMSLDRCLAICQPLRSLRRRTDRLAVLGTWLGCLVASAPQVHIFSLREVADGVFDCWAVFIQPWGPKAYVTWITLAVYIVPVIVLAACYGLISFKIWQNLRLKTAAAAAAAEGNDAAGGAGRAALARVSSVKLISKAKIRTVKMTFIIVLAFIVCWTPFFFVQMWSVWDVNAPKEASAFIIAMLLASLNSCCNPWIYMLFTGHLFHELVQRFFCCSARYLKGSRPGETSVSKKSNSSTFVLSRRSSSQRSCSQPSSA
Experimental: Female Sprague-Dawley rats weighing approximately 200-250 g are injected intramuscularly (i.m.) with 0.3 mg/kg of body weight of diethylstilbestrol (DES). The rats are sacrificed 18 hours later under pentobarbital anesthesia. The uteri are dissected out, cleaned of fat and connective tissues and rinsed in 50 ml of normal saline. The tissue pooled from six rats is homogenized in 50 ml of […] Tris.HCl, containing 0.5 mM dithiothreitol and 1.0 mM EDTA, adjusted to pH 7.4, using a polytron at setting 6 with three passes of 10 sec each. The homogenate is passed through two (2) layers of cheesecloth and the filtrate centrifuged at 1000×g for 10 min. The clear supernatant is removed and recentrifuged at 165,000×g for 30 min. The resulting pellet containing the oxytocin receptors is resuspended in 50.0 mM Tris.HCl containing 5.0 mM MgCl2 at pH 7.4, to give a protein concentration of 2.5 mg/ml of tissue suspension. This preparation is used in subsequent binding assays with [^3 H]Oxytocin.
Binding of 3,5-[^3 H]Oxytocin ([^3 H]OT) to its receptors is done in microtiter plates using [^3 H]OT, at various concentrations, in an assay buffer of 50.0 mM Tris.HCl, pH 7.4 and containing 5.0 mM MgCl2, and a mixture of protease inhibitors: BSA, 0.1 mg; aprotinin, 1.0 mg; 1,10-phenanthroline, 2.0 mg; […], 10.0 mg; and PMSF, 0.3 mg per 100 ml of buffer solution. Non-specific binding is determined in the presence of 1.0 uM unlabeled OT. The binding reaction is terminated after 60 min., at 22° C., by rapid filtration through glass fiber filters using a Brandel® cell harvester (Biomedical Research and Development Laboratories, Inc., Gaithersburg, Md.). Competition experiments are conducted at equilibrium using 1.0 nM [^3 H]OT and varying the concentration of the displacing agents. The concentrations of agent displacing 50% of [^3 H]OT at its sites (IC50) are calculated by a computer assisted LUNDON-2 program (LUNDON SOFTWARE INC., Ohio, USA).

vasopressin V1 = assay: Vasopressin V1 Antagonist Activity in Conscious Rats (vasopressin vasopressor response); format: in vivo, rat (spontaneously hypertensive rats); settings: 30 mg/kg i.v.
Summary of the method: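 Conscious rats had the ventral caudal tail artery cannulated into the lower abdominal aorta under local procaine anesthesia, plus a caudal vein cannula for intravenous dosing. Pulsatile blood pressure was recorded via a Statham P23Db transducer. Vasopressor responses to vasopressin injections were measured before and after compound dosing, with percent antagonism calculated relative to the pre-drug response taken as 100%.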

[4] = target: T3, vasopressin V1 receptor subtype in human platelet membranes (Homo sapiens, UniProt P37288); assay: Binding to Vasopressin V1 Receptor Subtype in Human Platelet Membranes; settings: human platelet V1 (*)
T3 construct: tissue Hudson Valley Blood Services; host or cells: human blood platelets (frozen platelet rich plasma)
Experimental: (a) Platelet Membrane Preparation:
Frozen platelet rich plasma (PRP), received from the Hudson Valley Blood Services, are thawed to room temperature. (Platelet Source: Hudson Valley Blood Services, Westchester Medical Center, Valhalla, N.Y.). The tubes containing the PRP are centrifuged at 16,000×g for 10 min. at 4° C. and the supernatant fluid discarded. The platelets resuspended in an equal volume of 50.0 mM Tris.HCl, pH 7.5 containing 120 mM NaCl and 20.0 mM EDTA. The suspension is recentrifuged at 16,000×g for 10 min. This washing step is repeated one more time. The wash discarded and the lysed pellets homogenized in low ionic strength buffer of Tris.HCl, 5.0 mM, pH 7.5 containing 5.0 mM EDTA. The homogenate is centrifuged at 39,000×g for 10 min. The resulting pellet is resuspended in Tris.HCl buffer, 70.0 mM, pH 7.5 and recentrifuged at 39,000×g for 10 min. The final pellet is resuspended in 50.0 mM Tris.HCl buffer pH 7.4 containing 120 mM NaCl and 5.0 mM KCl to give 1.0-2.0 mg protein per ml of suspension.
(b) Binding to Vasopressin V1 Receptor Subtype in Human Platelet Membranes:
In wells of a 96 well format microtiter plate, add 100 μl of 50.0 mM Tris.HCl buffer containing 0.2% BSA and a mixture of protease inhibitors (aprotinin, leupeptin etc.). Then add 20 μl of [^3 H]Ligand (Manning or Arg^8 Vasopressin), to give final concentrations ranging from 0.01 to 10.0 nM. Initiate the binding by adding 80.0 μl of platelet suspension (approx. 100 μg protein). Mix all reagents by pipetting the mixture up and down a few times. Non specific binding is measured in the presence of 1.0 μM of unlabeled ligand (Manning or Arg^8 Vasopressin). Let the mixture stand undisturbed at room temperature for ninety (90) min. Upon this time, rapidly filter off the incubate under vacuum suction over GF/B filters, using a Brandel Harvester. The radioactivity caught on the filter disks is determined by the addition of liquid scintillant and counting in a liquid scintillator.

T1 sequence (Q00788 whole entry): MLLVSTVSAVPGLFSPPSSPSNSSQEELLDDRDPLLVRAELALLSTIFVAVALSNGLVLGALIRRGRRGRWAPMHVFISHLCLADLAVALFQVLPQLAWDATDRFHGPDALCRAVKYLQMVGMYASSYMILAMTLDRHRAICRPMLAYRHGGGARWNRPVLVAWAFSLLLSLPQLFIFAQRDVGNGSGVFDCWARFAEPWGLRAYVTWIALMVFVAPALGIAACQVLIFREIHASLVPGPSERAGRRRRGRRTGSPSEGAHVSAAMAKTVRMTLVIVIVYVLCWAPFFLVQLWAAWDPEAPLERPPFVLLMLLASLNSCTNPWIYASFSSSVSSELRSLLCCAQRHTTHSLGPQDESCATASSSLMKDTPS
Chain of vasopressin V1 receptor (rat liver plasma membranes) (P30560 whole entry): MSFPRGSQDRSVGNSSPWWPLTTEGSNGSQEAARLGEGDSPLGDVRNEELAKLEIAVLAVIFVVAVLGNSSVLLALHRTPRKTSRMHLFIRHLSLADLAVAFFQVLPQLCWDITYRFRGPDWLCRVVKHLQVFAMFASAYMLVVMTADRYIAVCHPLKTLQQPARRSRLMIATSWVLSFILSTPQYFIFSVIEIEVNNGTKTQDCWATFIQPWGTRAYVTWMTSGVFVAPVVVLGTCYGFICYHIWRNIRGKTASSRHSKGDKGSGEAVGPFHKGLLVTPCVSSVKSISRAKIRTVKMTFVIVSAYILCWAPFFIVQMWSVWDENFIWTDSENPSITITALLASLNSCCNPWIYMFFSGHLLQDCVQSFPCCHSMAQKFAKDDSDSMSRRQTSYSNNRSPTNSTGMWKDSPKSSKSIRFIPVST
T3 sequence (P37288 whole entry): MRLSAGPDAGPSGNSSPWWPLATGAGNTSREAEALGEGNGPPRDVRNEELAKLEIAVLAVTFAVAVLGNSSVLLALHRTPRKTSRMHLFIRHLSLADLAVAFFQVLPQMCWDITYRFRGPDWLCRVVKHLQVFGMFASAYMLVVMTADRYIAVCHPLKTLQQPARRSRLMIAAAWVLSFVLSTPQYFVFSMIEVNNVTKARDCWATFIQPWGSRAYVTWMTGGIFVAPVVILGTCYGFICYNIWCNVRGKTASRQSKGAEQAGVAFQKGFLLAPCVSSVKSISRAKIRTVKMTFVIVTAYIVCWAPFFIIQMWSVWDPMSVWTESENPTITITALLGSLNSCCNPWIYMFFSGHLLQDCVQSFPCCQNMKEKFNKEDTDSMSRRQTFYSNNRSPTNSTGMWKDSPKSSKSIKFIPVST

| Structure (SMILES) | inhibition at 10 µM [1] [%] | inhibition at 10 µM [2] [%] | inhibition at 10 µM [3] [%] | IC50 [1] [nM] | IC50 [2] [nM] | IC50 ([3]; second part of Table V) [nM] | further results |
| --- | --- | --- | --- | --- | --- | --- | --- |
| O=C(Nc1ccc(C(=O)N2Cc3ccccc3Cc3ccccc32)cc1)c1ccc(Cl)c(Cl)c1 [Example 250, N-[4-[(6,11-Dihydro-5H-dibenz[b,e]azepin-5-yl)-carbonyl]phenyl]-3,4-dichlorobenzamide] | 62 | 77 | 15 |  |  |  | Osmolality (vasopressin V2; 30 mg/kg orally): 1378 mOsm/kg; Urine Volume (vasopressin V2; 30 mg/kg orally): 6.5 ml/4 hrs. |
| O=C(Nc1ccc(C(=O)N2Cc3ccccc3Cc3ccccc32)c(Cl)c1)c1ccc(Cl)cc1Cl [Example 256, N-[4-[(6,11-Dihydro-5H-dibenz[b,e]azepin-5-yl)-carbonyl]-3-chlorophenyl]-2,4-dichlorobenzamide] |  |  | 47 | 100 | 54 |  | IC50 ([3]; first part of Table V): 6500 nM |
| Cc1c(F)cccc1C(=O)Nc1ccc(C(=O)N2CCc3c[nH]nc3-c3ccccc32)c(Cl)c1 [Example 582] |  |  |  | 1300 | 5.3 | 275 |  |
| Cc1c(F)cccc1C(=O)Nc1ccc(C(=O)N2Cc3ccccc3Cc3ccccc32)cc1 [Example 254, N-(4-[(6,11-Dihydro-5H-dibenz[b,e]azepin-5-yl)-carbonyl]phenyl]-2-methyl-3-fluorobenzamide] |  |  | 95 | 100 | 37 |  | MAX % Inhibition (vasopressin V1): 74%; Time of max % inhibition (vasopressin V1): 60 min; IC50 ([3]; first part of Table V): 1900 nM |
| O=C(c1ccc(NS(=O)(=O)c2ccccc2Cl)cc1)N1Cc2ccccc2Cc2ccccc21 [Example 450, 5-[4-[[(2-Chlorophenyl)sulfonyl]amino]benzoyl]-6,11-dihydro-5H-dibenz [b,e]azepine] | 87 | 29 | 33 |  |  |  |  |
| Cc1ccccc1C(=O)Nc1ccc(C(=O)N2CCc3c[nH]nc3-c3ccccc32)cc1 [Example 585, N-[4-[(4.5-Dihydropyrazolo[4.3-d][1]benzaze-in-6(2H)-yl)carbonyl]phenyl]-2-methylbenzamide] |  |  | 99 |  | 32 | 250 | IC50 [4]: 12 nM |
| O=C(Nc1ccc(C(=O)N2Cc3ccccc3Cc3ccccc32)cc1)c1cc(Cl)cc(Cl)c1Cl [Example 249, N-[4-[(6,11-Dihydro-5H-dibenz[b,e]azepin-5-yl)-carbonyl]phenyl]-2,3 5-trichlorobenzamide] | 61 | 88 | 38 |  |  |  |  |
| Cc1ccccc1COC(=O)c1ccc(C(=O)N2Cc3ccccc3Cc3ccccc32)cc1 [Example 266, (2-Methylphenyl)methyl 4-[(6,11-dihydro-5H-dibenz[b,e]azepin-5-yl)carbonyl)benzoate] |  |  | 15 |  |  |  | Osmolality (vasopressin V2; 10 mg/kg orally): 1186 mOsm/kg; Urine Volume (vasopressin V2; 10 mg/kg orally): 4.3 ml/4 hrs.; MAX % Inhibition (vasopressin V1): 21%; Time of max % inhibition (vasopressin V1): 120 min |
| O=C(Nc1ccc(C(=O)N2CCc3c[nH]nc3-c3ccccc32)cc1)c1ccc(Cl)cc1Cl [Example 583, N-[4-[(4,5-Dihydropyrazolo[4,3-d][1]benzazepin-6(2H)-yl)carbonyl]phenyl]-2,4-dichlorobenzamide] |  |  | 95 | 82 | 40 | 330 |  |
| CN(C)CC(=O)Nc1ccc(C(=O)N2Cc3ccccc3Cc3ccccc32)cc1 [Example 454] | 64 | 33 | 78 |  |  | 2500 |  |
| Cc1ccccc1C(=O)Nc1ccc(C(=O)N2CCc3cnoc3-c3ccccc32)cc1 [Example 345, N-[4-[(4,5-Dihydro-6H-isoxazolo[4,5-d][1]benzazepin-6-yl)carbonyl]phenyl]-2-methylbenzamide] | 99 | 81 | 2 |  |  |  |  |
| Cc1cccc(C(=O)Nc2ccc(C(=O)N3Cc4ccccc4Cc4ccccc43)cc2)c1C [Example 11, N-[4-[(6,11-Dihydro-5H-dibenz[b,e]azepin-5-yl)carbonyl]phenyl]-2,3-dimethylbenzamide] |  |  | 71 | 160 | 33 |  | Osmolality (vasopressin V2; 30 mg/kg orally): 1114 ± 55 mOsm/kg; Urine Volume (vasopressin V2; 30 mg/kg orally): 9.7 ± 0.6 ml/4 hrs.; IC50 ([3]; first part of Table V): 4400 nM |
